Where only a bound is given, the exact number is not on record here.

One assay concerns the target SARS-CoV-2 Mpro (Severe acute respiratory syndrome coronavirus 2, UniProt P0DTD1). The experiment in a line: biochemical. The conditions noted are these: for IC50: IC50, enzyme 100 nM, substrate 20 μM, 10 min preincubation, pH 6.5; for activity reduction vs. compound 30: compared with more active diastereomer of 30; for inhibition at 20 µM: read-out: % inhibition at 20 μM.

The subject of assay [1] is SARS-CoV-2 (Washington strain, 2020). The assay can be described thus: microbe, parasite or virus in culture. Format: cell-based. The conditions noted are these: for EC68 (half-log reduction of virus titer): 0.01 MOI.
The mark [2] stands for this setting: Severe acute respiratory syndrome coronavirus 2, Vero, read-out: inhibition of SARS-CoV-2 replication.

As for `CC1OC1C(=O)N(c1ccc(C(C)(C)C)cc1)C(C(=O)NC1CCCCC1)c1cccnc1` [(R, S, R)- and (S, R, S)-35, N-(4-(tert-Butyl)phenyl)-N-(2-(cyclohexylamino)-2-oxo-1-(pyridin-3-yl)ethyl)-3-methyloxirane-2-carboxamide], at SARS-CoV-2 Mpro, the “activity difference between the two separated diastereomers” value is reported as over 10 fold, half-maximal inhibition (IC50) required 1900 ± 210 nM and the “activity reduction vs. compound 30” value is reported as at most 3 fold. For the same molecule, the “EC68 (half-log reduction of virus titer)” value in assay [1] (Vero cells, 48 h) was determined as 15 μM.
For `CC(C)(C)c1ccc(N(C(=O)C2OC2(C)C)C(C(=O)NC2CCCCC2)c2cccnc2)cc1` (centres unmarked) [Compound 36, N-(4-(tert-Butyl)phenyl)-N-(2-(cyclohexylamino)-2-oxo-1-(pyridin-3-yl)ethyl)-3,3-dimethyloxirane-2-carboxamide], on SARS-CoV-2 Mpro, the half-inhibitory concentration (IC50) came out at 2500 ± 280 nM and the “activity reduction vs. compound 30” value is recorded as at most 3 fold. In addition, in assay [1] (at 15 μM, Vero cells), the “antiviral activity (in words)” value is “inactive”.
`CC(C)(C)NC(=O)C(c1cccnc1)N(C(=O)CCl)c1ccc(C(C)(C)C)cc1` (centres unmarked) [Compound 13, N-(tert-Butyl)-2-(N-(4-(tert-butyl)phenyl)-2-chloroacetamido)-2-(pyridin-3-yl)acetamide] displayed a 50% inhibitory concentration (IC50) on SARS-CoV-2 Mpro of 600 ± 50 nM. In addition, the inhibition at 3 µM in assay [1] (setting [2]) came to 68%. In addition, the inhibition at 5 µM in assay [1] (setting [2]) amounted to 97%. Besides, in assay [1] (Vero cells, 48 h), the “EC68 (half-log reduction of virus titer)” value was found to be 3 μM. The titer reduction is recorded as 0.5 log in assay [1] (at 3 μM, Vero cells) and 1.5 log in assay [1] (at 5 μM, Vero cells).
Take `C=Cc1ccc(N(C(=O)c2ccco2)C(C(=O)NCc2ccccc2)c2cccnc2)cc1` (centres unmarked) [Compound 3, N-(2-(Benzylamino)-2-oxo-1-(pyridin-3-yl)ethyl)-N-(4-vinylphenyl)furan-2-carboxamide]: the inhibition at 20 µM at SARS-CoV-2 Mpro is 26%.
Consider `C=CC(=O)N(c1ccc(C(C)(C)C)cc1)C(C(=O)NC1CCCCC1)c1cccnc1` (centres unmarked) [Compound 29, N-(4-(tert-Butyl)phenyl)-N-(2-(cyclohexylamino)-2-oxo-1-(pyridin-3-yl)ethyl)acrylamide], for which the inhibition at 20 µM on SARS-CoV-2 Mpro came out at 30%.
Consider `CC(C)(C)NC(=O)C(c1cccnc1)N(C(=O)CCl)c1ccc(NC(=O)CCl)cc1` (centres unmarked) [Compound 15, N-(tert-Butyl)-2-(2-chloro-N-(4-(2-chloroacetamido)phenyl)acetamido)-2-(pyridin-3-yl)acetamide], for which 3200 ± 790 nM corresponded to half-maximal inhibition at SARS-CoV-2 Mpro (IC50). Moreover, the “fold less active than compound 13” value on SARS-CoV-2 Mpro (IC50 compared with compound 13) is given as ~ 5 ×.
Turning to `CC(C)(C)NC(=O)C(c1cccnc1)N(C(=O)CCl)c1cccc(N)c1` (centres unmarked) [Compound 21, N-(3-Aminophenyl)-N-(2-(tert-butylamino)-2-oxo-1-(pyridin-3-yl)ethyl)-2-chloroacetamide], at SARS-CoV-2 Mpro, the inhibition at 20 µM worked out at 33%.
Take `CC(C)(C)c1ccc(N(C(=O)CCl)C(C(=O)NCc2ccccc2)c2cccnc2)cc1` (centres unmarked) [Compound 23, N-Benzyl-2-(N-(4-(tert-butyl)phenyl)-2-chloroacetamido)-2-(pyridin-3-yl)acetamide]: the inhibition at 20 µM on SARS-CoV-2 Mpro was found to be 41%.
Same read-out and setting: in the case of `CC(C)(C)c1ccc(N(C(=O)CC#N)C(C(=O)NC2CCCCC2)c2cccnc2)cc1` (centres unmarked) [Compound 34, N-(4-(tert-Butyl)phenyl)-2-cyano-N-(2-(cyclohexylamino)-2-oxo-1-(pyridin-3-yl)ethyl)acetamide] it was 28%; in that of `C=CC(=O)Nc1cccc(N(C(=O)c2ccco2)C(C(=O)NCc2ccccc2)c2cccnc2)c1` (centres unmarked) [Compound 10, N-(3-Acrylamidophenyl)-N-(2-(benzylamino)-2-oxo-1-(pyridin-3-yl)ethyl)furan-2-carboxamide], 5%.
As for `CC(C)(C)c1ccc(N(C(=O)CCl)C(C(=O)NC2CCCCC2)c2cccnc2)cc1` (centres unmarked) [Compound 26, N-(4-(tert-Butyl)phenyl)-2-chloro-N-(2-(cyclohexylamino)-2-oxo-1-(pyridin-3-yl)ethyl)acetamide], at SARS-CoV-2 Mpro, the half-inhibitory concentration (IC50) amounted to 490 ± 220 nM.
Regarding `C=CC(=O)Nc1ccc(N(C(=O)c2ccco2)C(C(=O)NCc2ccccc2)c2cccnc2)cc1` (centres unmarked) [Compound 7, N-(4-Acrylamidophenyl)-N-(2-(benzylamino)-2-oxo-1-(pyridin-3-yl)ethyl)furan-2-carboxamide], the inhibition at 20 µM on SARS-CoV-2 Mpro worked out at 22%.
Regarding `CC(C)(C)c1ccc(N(C(=O)C2CO2)C(C(=O)NCc2ccccc2)c2cccnc2)cc1` [(R, S)- and (S, R)-42, N-(2-(Benzylamino)-2-oxo-1-(pyridin-3-yl)ethyl)-N-(4-(tert-butyl)phenyl)oxirane-2-carboxamide], the IC50 against SARS-CoV-2 Mpro amounted to 1600 ± 320 nM.
As to `CC(C)(C)NC(=O)C(c1cccnc1)N(C(=O)CCl)c1cccc(NC(=O)CCl)c1` (centres unmarked) [Compound 18, N-(tert-Butyl)-2-(2-chloro-N-(3-(2-chloroacetamido)phenyl)acetamido)-2-(pyridin-3-yl)acetamide], at SARS-CoV-2 Mpro, the half-maximal inhibitory concentration (IC50) was 3600 ± 600 nM.
In turn, `CC1OC1C(=O)N(c1ccc(C(C)(C)C)cc1)C(C(=O)NC(C)(C)C)c1cccnc1` [(R, S, R)- and (S, R, S)-39, N-(4-(tert-Butyl)phenyl)-N-(2-(tert-butylamino)-2-oxo-1-(pyridin-3-yl)ethyl)-3-methyloxirane-2-carboxamide] came in with a half-inhibitory concentration (IC50) at SARS-CoV-2 Mpro of 4330 ± 320 nM.
For the molecule `O=C(Nc1ccc(N(C(=O)c2ccco2)C(C(=O)NCc2ccccc2)c2cccnc2)cc1)C(Cl)Cl` (centres unmarked) [Compound 6, N-(2-(Benzylamino)-2-oxo-1-(pyridin-3-yl)ethyl)-N-(4-(2,2-dichloroacetamido)phenyl)furan-2-carboxamide], the inhibition at 20 µM on SARS-CoV-2 Mpro turned out to be 41%.
In turn, `CC(C)(C)NC(=O)C(c1cccnc1)N(C(=O)CCl)c1ccc(CC2CO2)cc1` (centres unmarked) [Compound 17, N-(tert-Butyl)-2-(2-chloro-N-(4-(oxiran-2-ylmethyl)phenyl)acetamido)-2-(pyridin-3-yl)acetamide] gave a half-maximal inhibitory concentration (IC50) against SARS-CoV-2 Mpro of 3600 ± 300 nM.
As for `CC(C)(C)c1ccc(N(C(=O)C2CO2)C(C(=O)NC2CCCCC2)c2cccnc2)cc1` [(R, S)- and (S, R)-30, N-(4-(tert-Butyl)phenyl)-N-(2-(cyclohexylamino)-2-oxo-1-(pyridin-3-yl)ethyl)oxirane-2-carboxamide], at SARS-CoV-2 Mpro, the “activity difference between the two separated diastereomers” value was over 10 fold and the half-inhibitory concentration (IC50) worked out at 760 ± 180 nM. The molecule further had a concentration for an effect of 90% (EC90) in assay [1] (Severe acute respiratory syndrome coronavirus 2, Vero, 48 h) of 15000 nM. In addition, the “EC68 (half-log reduction of virus titer)” value in assay [1] (Vero cells, 48 h) is recorded as 5 μM.
For `CC(C)(C)NC(=O)C(c1cccnc1)N(C(=O)C1(C)CO1)c1ccc(C(C)(C)C)cc1` (centres unmarked) [Compound 41, N-(4-(tert-Butyl)phenyl)-N-(2-(tert-butylamino)-2-oxo-1-(pyridin-3-yl)ethyl)-2-methyloxirane-2-carboxamide], the inhibition at 20 µM at SARS-CoV-2 Mpro came out at 22%.
On the same count and under the same terms, the result for `Nc1cccc(N(C(=O)c2ccco2)C(C(=O)NCc2ccccc2)c2cccnc2)c1` (centres unmarked) [Compound 12, N-(3-Aminophenyl)-N-(2-(benzylamino)-2-oxo-1-(pyridin-3-yl)ethyl)furan-2-carboxamide] reads 18%; that for `CC(C)(C)NC(=O)C(c1cccnc1)N(C(=O)CO)c1ccc(C(C)(C)C)cc1` (centres unmarked) [Compound 32, N-(tert-Butyl)-2-(N-(4-(tert-butyl)phenyl)-2-hydroxyacetamido)-2-(pyridin-3-yl)acetamide], 21%.

By IC50 is commonly meant the concentration that inhibits the measured activity by half. Read a high IC50 as a need for much substance. What is called inhibition is the change of the read-out against control, counted positive when it falls. By EC90 is commonly meant the concentration needed for an effect of 90%.
